Laboratory results from patent US11370786B2, “GLS1 inhibitors for treating disease” (Board of Regents, The University of Texas System, priority 2014, dated 2022).

Columns and labels:
[1] = molecular target: GLS1 (purified recombinant human GAC) (Homo sapiens (Human), UniProt O94925); assay: GLS1 Enzymatic Activity Assay (dual-coupled glutamate oxidase/HRP Amplex UltraRed); assay type: biochemical
A549 cells = assay: Proliferation Assay (A549 viability, Cell Titer Fluor, 72 hours); assay type: cell-based; details: Homo sapiens, A549, 72 h
Protocol: A549 cells were routinely maintained in RPMI 1640 media (Gibco catalog number 11875-093) supplemented with 10% dialyzed fetal bovine serum using a humidified incubator (37° C., 5% CO2 and ambient O2). In preparation for the viability assay, cells were inoculated into 384-well black CulturPlates (Perkin Elmer) at a density of 1000 cells/well in a volume of 40 uL. Following a 24-hour incubation at 37° C., 5% CO2 and ambient O2, cells were treated with compound ([…]) in a final DMSO concentration of 0.5% (v/v). The microplates were then incubated for 72 hours (37° C., 5% CO2 and ambient O2). Cell Titer Fluor (Promega) was subsequently added (10 uL of 6× reagent) and mixed for 15 minutes at room temperature. The plates were then incubated for 30 minutes (37° C., 5% CO2 and ambient O2) and fluorescence was subsequently read on the Perkin Elmer Envision plate reader. IC50 values were calculated using a four-parameter logistic curve fit.

Chain of GLS1 (purified recombinant human GAC) (O94925 other isoform, or with tags, fused parts or gaps): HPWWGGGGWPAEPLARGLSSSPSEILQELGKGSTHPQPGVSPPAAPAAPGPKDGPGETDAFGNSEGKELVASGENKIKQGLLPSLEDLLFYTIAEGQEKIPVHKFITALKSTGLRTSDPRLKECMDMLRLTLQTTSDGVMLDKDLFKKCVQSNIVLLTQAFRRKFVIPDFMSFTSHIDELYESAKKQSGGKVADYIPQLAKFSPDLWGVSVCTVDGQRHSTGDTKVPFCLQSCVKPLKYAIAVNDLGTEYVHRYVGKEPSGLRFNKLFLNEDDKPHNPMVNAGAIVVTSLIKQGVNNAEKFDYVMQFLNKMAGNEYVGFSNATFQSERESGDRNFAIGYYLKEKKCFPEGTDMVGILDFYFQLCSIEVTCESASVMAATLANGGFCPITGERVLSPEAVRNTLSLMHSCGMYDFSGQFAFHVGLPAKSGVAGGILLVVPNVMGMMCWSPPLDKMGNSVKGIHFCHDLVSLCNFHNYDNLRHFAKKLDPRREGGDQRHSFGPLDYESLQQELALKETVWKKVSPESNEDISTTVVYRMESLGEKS

Structure (SMILES) | IC50 [1] [µM] | EC50 (A549 cells) [µM]
CNC(=O)c1cn(CCCCc2ccc(NC(=O)Cc3cc(-c4ccc(F)cc4C(F)(F)F)ccn3)nn2)nn1 [Example 606, 1-(4-(6-(2-(4-(4-fluoro-2-(trifluoromethyl)phenyl)pyridin-2-yl)acetamido)pyridazin-3-yl)butyl)-N-methyl-1H-1,2,3-triazole-4-carboxamide] | < 0.1 | 
O=C(Cc1cncc(OC2CC(F)(F)C2)c1)Nc1ccc(CCCCn2cc(C(=O)NCc3cc(C(F)(F)F)ccn3)nn2)nn1 [Example 230, 1-(4-(6-(2-(5-(3,3-difluorocyclobutoxy)pyridin-3-yl)acetamido)pyridazin-3-yl)butyl)-N-((4-(trifluoromethyl)pyridin-2-yl)methyl)-1H-1,2,3-triazole-4-carboxamide] | < 0.1 | 
CNC(=O)c1cn(CCCCc2ccc(NC(=O)Cc3cc(-c4cc(F)ccc4C)ccn3)nn2)nn1 [Example 609, 1-(4-(6-(2-(4-(5-fluoro-2-methylphenyl)pyridin-2-yl)acetamido)pyridazin-3-yl)butyl)-N-methyl-1H-1,2,3-triazole-4-carboxamide] | < 0.1 | 
CNC(=O)c1cn(CCCCc2ccc(NC(=O)Cc3cc(Cl)ccn3)nn2)nn1 [Example 191, 1-(4-{6-[2-(4-chloropyridin-2-yl)acetamido]pyridazin-3-yl}butyl)-N-methyl-1H-1,2,3-triazole-4-carboxamide] | < 0.1 | 
CNC(=O)c1cn(CCCCc2ccc(NC(=O)Cc3cc(Br)ccn3)nn2)nn1 [Example 200, 1-(4-(6-(2-(4-bromopyridin-2-yl)acetamido)pyridazin-3-yl)butyl)-N-methyl-1H-1,2,3-triazole-4-carboxamide] | < 0.1 | 
CNC(=O)c1cn(CCCCc2ccc(NC(=O)Cc3cc(C4CC4)ccn3)nn2)nn1 [Example 190, 1-(4-{6-[2-(4-cyclopropylpyridin-2-yl)acetamido]pyridazin-3-yl}butyl)-N-methyl-1H-1,2,3-triazole-4-carboxamide] | < 0.1 | 
O=C(Cc1ccccn1)Nc1ccc(CCCCn2cc(C(=O)NCc3cc(C(F)(F)F)ccn3)nn2)nn1 [Example 203, 1-(4-(6-(2-(pyridin-2-yl)acetamido)pyridazin-3-yl)butyl)-N-((4-(trifluoromethyl)pyridin-2-yl)methyl)-1H-1,2,3-triazole-4-carboxamide] | < 0.1 | 
CNC(=O)c1cn(CCCCc2ccc(NC(=O)Cc3ccc(Cl)nc3)nn2)nn1 [Example 544, 1-(4-{6-[2-(6-chloropyridin-3-yl)acetamido]pyridazin-3-yl}butyl)-N-methyl-1H-1,2,3-triazole-4-carboxamide] | < 0.1 | 
CNC(=O)c1cn(CCCCc2ccc(NC(=O)Cc3cncc(Br)c3)nn2)nn1 [Example 546, 1-(4-{6-[2-(5-bromopyridin-3-yl)acetamido]pyridazin-3-yl}butyl)-N-methyl-1H-1,2,3-triazole-4-carboxamide] | < 0.1 | 
O=C(Cc1cncc(OC2CC(F)(F)C2)c1)Nc1ccc(CCCCn2cc(C(=O)NCc3ccccn3)nn2)nn1 [Example 231, 1-(4-(6-(2-(5-(3,3-difluorocyclobutoxy)pyridin-3-yl)acetamido)pyridazin-3-yl)butyl)-N-(pyridin-2-ylmethyl)-1H-1,2,3-triazole-4-carboxamide] | < 0.1 | 
CNC(=O)c1cn(CCCCc2ccc(NC(=O)Cc3cc(-c4cccc(OC(F)(F)F)c4F)ccn3)nn2)nn1 [Example 607, 1-(4-(6-(2-(4-(2-fluoro-3-(trifluoromethoxy)phenyl)pyridin-2-yl)acetamido)pyridazin-3-yl)butyl)-N-methyl-1H-1,2,3-triazole-4-carboxamide] | < 0.1 | 
O=C(NCc1cccc(OC(F)(F)F)c1)c1cn(CCCCn2cc(C(=O)NCc3ccc(C(F)(F)F)cn3)nn2)nn1 [Example 81, 1-{4-[4-({[3-(trifluoromethoxy)phenyl]methyl}carbamoyl)-1H-1,2,3-triazol-1-yl]butyl}-N-{[5-(trifluoromethyl)pyridin-2-yl]methyl}-1H-1,2,3-triazole-4-carboxamide] |  | < 0.1
CNC(=O)c1cn(CCCCc2ccc(NC(=O)Cc3cncc(OC4CC(F)(F)C4)c3)nn2)nn1 [Example 202, 1-(4-(6-(2-(5-(3,3-difluorocyclobutoxy)pyridin-3-yl)acetamido)pyridazin-3-yl)butyl)-N-methyl-1H-1,2,3-triazole-4-carboxamide] | < 0.1 | 
CNC(=O)c1cn(CCCCc2ccc(NC(=O)Cc3cc(-c4cccc(Cl)c4OC(F)(F)F)ccn3)nn2)nn1 [Example 608, 1-(4-(6-(2-(4-(3-chloro-2-(trifluoromethoxy)phenyl)pyridin-2-yl)acetamido)pyridazin-3-yl)butyl)-N-methyl-1H-1,2,3-triazole-4-carboxamide] | < 0.1 | 
O=C(NCc1cc(OC(F)(F)F)ccc1F)c1cn(CCC(F)Cn2cc(C(=O)NCc3ccccn3)nn2)nn1 (stereo not shown) [Example 369, 1-{2-fluoro-4-[4-({[2-fluoro-5-(trifluoromethoxy)phenyl]methyl}carbamoyl)-1H-1,2,3-triazol-1-yl]butyl}-N-(pyridin-2-ylmethyl)-1H-1,2,3-triazole-4-carboxamide] |  | < 0.1
CNC(=O)c1cn(CC(F)CCc2ccc(NC(=O)Cc3cc(OC(C)C(F)(F)F)ccn3)nn2)nn1 (stereo not shown) [Example 266, 1-(2-fluoro-4-(6-(2-(4-((1,1,1-trifluoropropan-2-yl)oxy)pyridin-2-yl)acetamido)pyridazin-3-yl)butyl)-N-methyl-1H-1,2,3-triazole-4-carboxamide] | < 0.1 | 
